Key:
[1] = test system: streptozotocin-induced diabetic rats; assay: liver and renal serum biomarkers; type: in vivo, Wistar rats; conditions: 28th day
Experimental: (§1) Non-insulin-dependent diabetes mellitus was induced in fasted rats weighing 150–230 gm using a single dose of streptozotocin (STZ) at a dose of 60 mg/kg intraperitoneally after 15 min of the administration of nicotinamide at a 120 mg/kg dose i.p. Nicotinamide was prepared in normal saline while in citrate buffer (pH 4.5), STZ was prepared. After the induction of diabetes, the increase in the plasma glucose level was measured at 72 h and then measured on the 7th day to confirm hyperglycemia. For the diagnosis of diabetes, the threshold value of the fasting plasma glucose level was considered to be more than 126 mg/dl. For the study, only the animals with permanent NIIDM were utilized.
(§2) The animals were classified into 5 groups with 6 animals in each group (n = 6). Group I comprised of normal control rats which were daily administered drinking water only; group II served as diabetic control rats (disease group); group III served as the positive control and were administered 0.5 mg/kg of the standard drug glibenclamide; and group IV and V served as the test group rats and were administered the test compound 10d at 10 mg/kg and 20 mg/kg, respectively, for twenty-eight days. The fasting glucose concentration was measured on the 0, 7th, 14th, and 28th day of the administration of the extract. During the experimental tenure, the weights of the rats were determined daily and the mean change was recorded.
The animals were euthanized (sacrificed) via cervical dislocation on the 28th day to observe the biochemical parameters. The parameters studied were triglyceride (TGL), cholesterol, low-density lipoprotein, and high-density lipoprotein (LDL and HDL). The Minias Globe Diagnostic kits were used for cholesterol and TGL. Semi-autoanalyzers were used for the analysis. The serum samples from the rats were also checked for alanine aminotransferase (ALT), aspartate aminotransferase (AST), lactate dehydrogenase (LDH), serum alkaline phosphatase (ALP), and creatinine and urea levels utilizing commercially available kits of Crest Biosystems. The statistical analysis was also performed as per the previous procedure.

[2] = target: T1, PTP1B (Homo sapiens, UniProt P18031); assay: PTP1B assay (pNPP substrate); type: biochemical
T1 sequence (P18031 1-435): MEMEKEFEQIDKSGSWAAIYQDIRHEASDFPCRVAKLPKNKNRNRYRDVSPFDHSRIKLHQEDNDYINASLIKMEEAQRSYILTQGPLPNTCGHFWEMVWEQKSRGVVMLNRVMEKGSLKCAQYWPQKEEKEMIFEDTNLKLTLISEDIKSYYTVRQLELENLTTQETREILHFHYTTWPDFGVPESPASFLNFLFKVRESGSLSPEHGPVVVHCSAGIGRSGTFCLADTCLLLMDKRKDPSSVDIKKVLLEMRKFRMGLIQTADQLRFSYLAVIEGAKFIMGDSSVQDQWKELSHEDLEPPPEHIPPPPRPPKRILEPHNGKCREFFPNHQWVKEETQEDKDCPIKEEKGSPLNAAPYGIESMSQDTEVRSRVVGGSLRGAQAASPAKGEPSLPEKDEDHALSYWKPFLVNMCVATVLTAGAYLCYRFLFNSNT
Experimental: The aforementioned newly synthesize succinimides and thiazolidinedione hybrids were tested against the PTP1B enzyme to determine their ability to inhibit the negative regulation of insulin as well as leptin signaling. The PTP1B test was performed with a small modification to the method described in the publications. The enzyme efficiency was evaluated using […] (pNPP) as a substrate. For the buffer solution, 0.5 millimolar (mM) of ethylene diamine tetraacetic acid (EDTA), 1 mM of mercaptoethanol, 0.55 mM of dithiothreitol (DTT), and 12.49 mM of TRIS hydrochloride (ph = 7.4) were used. The experiment was carried out by mixing 10.0 μL of the test compound solutions with 20.0 μL of the enzyme (1 μg/mL), subsequently injecting 40.0 μL of 4.0 mM 4-nitrophenyl dihydrogen phosphate in 130.5 μL of the prescribed buffer in a microplate well at 37 °C for 10 min. pNP was formed during the enzymatic process, which was monitored for 30 min. The IC50 values were derived using a non-linear regression analysis of the fraction of the product generated vs. the log of the inhibitory concentration.

[3] = test system: streptozotocin-induced diabetic rats; assay: effect on body weight; type: in vivo, Wistar rats; conditions: for Change in Body Weight, After Treatment: 28 days
Experimental: The antidiabetic activity of the synthesized compound 10d was evaluated using a streptozotocin-induced diabetic rats model.
Male Wistar rats weighing 150 to 230 gm were used for the study which were housed in polyacrylic cages (no more than six animals per cage) with dimensions of 38 × 23 × 10 cm and maintained under standard laboratory conditions with a dark/light cycle of 14 h of dark and 10 h of light at a temperature of 25 °C. The animals were provided with a standard diet (dry pellet) and water ad libitum. Before the start of the experimental procedures, the rats were acclimatized to laboratory conditions for 10 days. All the experiments were approved and performed as per the guidelines of the Departmental Research Ethics Committee under letter No. DREC/050 [49].
as §1, §2

[4] = test system: rats; assay: acute oral toxicity study, limit test (OECD up and down procedure); type: in vivo
Experimental: For the acute toxicity study, a limit test on the laboratory animals at 2000 mg/kg body weight was selected and the up and down procedure (UDP) was followed as per the guidelines of the Organization for Economic Cooperation and Development (OECD). The purpose was to evaluate the dose necessary to perform various pharmacological activities.
Healthy young adult male rats of about 8 to 12 weeks old were selected for dosing.
The rats were randomly selected, marked for an individual identification, and retained in their cages for at least 5 days before dosing to acclimatize to the laboratory conditions. Prior to dosing, the animals were fasted and they were refrained from food, not water, for 16–18 h.
After the fasting period, the weight of each animal was determined and according to the body weight of the animals, the dose at 2000 mg/kg body weight was calculated for each animal. A unique dose of the studied compound 10d was administered to the animals for the UDP study by the oral route using an intragastric cannula 16 G, and it was planned to dose the five animals on the same day. […] The onset time, toxic reactions, and length of the recovery period determined the duration of the observation and when considered necessary, may be extended. […] Individual observations were recorded and maintained systematically for each animal. […]

In the case of `CC(C)(C=C1SC(=O)N(C(=O)CN2CCOCC2)C1=O)C1CC(=O)N(Cc2ccccc2)C1=O` (centres unmarked) [10d], the ALP ([1]; 10mg (10 mg/kg)) is reported as 184.43 ± 3.83 U/L, the ALT ([1]; 10mg (10 mg/kg)) is reported as 136.80 ± 2.15 U/L and the AST ([1]; 10mg (10 mg/kg)) is reported as 123.40 ± 3.70 U/L. The Creatinine ([1]; 10mg (10 mg/kg)) was 0.51 ± 0.57 ^ns mg/dl, the LDH ([1]; 10mg (10 mg/kg)) was 930.11 ± 4.26 U/L and the Urea ([1]; 10mg (10 mg/kg)) was 75.26 ± 2.44 mg/dL. It also gave an ALP ([1]; 20mg (20 mg/kg)) of 122.80 ± 2.00 U/L, an ALT ([1]; 20mg (20 mg/kg)) of 60.42 ± 2.20 U/L and an AST ([1]; 20mg (20 mg/kg)) of 94.32 ± 2.30 U/L. The Creatinine ([1]; 20mg (20 mg/kg)) was 0.42 ± 0.31 ^ns mg/dl, the LDH ([1]; 20mg (20 mg/kg)) was 850.53 ± 4.41 U/L and the Urea ([1]; 20mg (20 mg/kg)) was 51.53 ± 2.23 mg/dL. It also gave an IC50 [2] of 3.64 µM, an inhibition at 31.25 µM ([2]; 31.25 µM) of 71.8% and an inhibition at 62.5 µM ([2]; 62.5 µM) of 74.7%. It also gave an inhibition at 125 µM ([2]; 125 µM) of 79%, an inhibition at 250 µM ([2]; 250 µM) of 84.5% and an inhibition at 500 µM ([2]; 500 µM) of 89.88 ± 0.89%. The “Change in Body Weight, After Induction” value ([3]; 10mg (10 mg/kg) group) was 154.22 ± 3.62 gm, the “Change in Body Weight, Before Induction” value ([3]; 10mg (10 mg/kg) group) was 191.23 ± 1.50 ^ns gm and the “Change in Body Weight, After Treatment” value ([3]; 10mg (10 mg/kg) group) was 182.43 ± 5.76 gm. The “Change in Body Weight, After Induction” value ([3]; 20mg (20 mg/kg) group) was 171.60 ± 1.90 ^ns gm, the “Change in Body Weight, Before Induction” value ([3]; 20mg (20 mg/kg) group) was 204.66 ± 3.60 gm and the “Change in Body Weight, After Treatment” value ([3]; 20mg (20 mg/kg) group) was 198.19 ± 4.66 gm. For the same compound, the “acute toxicity observation (behavior, mortality)” value ([4]; limit dose 2000 mg/kg body weight, observed 14 days) was “no abnormal changes in their behavior and no mortality” and the “LD50 class as per OECD guidelines” value ([4]; maximum dose 2000 mg/kg) was “class IV”.

From publication PMC9918900, “New Succinimide–Thiazolidinedione Hybrids as Multitarget Antidiabetic Agents: Design, Synthesis, Bioevaluation, and Molecular Modelling Studies” (Molecules, 2023)
